Experimental data from publication PMC10184127 (Journal of Medicinal Chemistry, 2023).

What was measured:
[1] = target: AgAChE1 (Anopheles gambiae, UniProt Q869C3)
[2] = target: hAChE (Homo sapiens, UniProt P22303)
[3] = at higher concentrations

hAChE, sequence (P22303 32-614): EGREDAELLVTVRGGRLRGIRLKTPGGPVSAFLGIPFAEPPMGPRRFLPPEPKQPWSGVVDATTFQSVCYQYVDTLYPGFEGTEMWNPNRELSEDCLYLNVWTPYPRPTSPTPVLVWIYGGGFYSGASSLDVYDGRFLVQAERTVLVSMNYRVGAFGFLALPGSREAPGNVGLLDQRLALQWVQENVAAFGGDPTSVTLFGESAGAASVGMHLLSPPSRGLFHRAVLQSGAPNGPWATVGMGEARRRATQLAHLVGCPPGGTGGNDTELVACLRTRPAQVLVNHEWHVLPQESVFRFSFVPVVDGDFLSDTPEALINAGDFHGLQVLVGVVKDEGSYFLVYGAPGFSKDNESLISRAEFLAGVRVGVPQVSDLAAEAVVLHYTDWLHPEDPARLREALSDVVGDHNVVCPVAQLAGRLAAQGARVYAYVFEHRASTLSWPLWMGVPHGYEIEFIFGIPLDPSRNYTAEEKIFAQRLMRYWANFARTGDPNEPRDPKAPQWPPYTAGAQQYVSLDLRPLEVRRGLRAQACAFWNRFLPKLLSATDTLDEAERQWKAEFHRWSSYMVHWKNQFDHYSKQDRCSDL
AgAChE1, sequence (Q869C3 39-737): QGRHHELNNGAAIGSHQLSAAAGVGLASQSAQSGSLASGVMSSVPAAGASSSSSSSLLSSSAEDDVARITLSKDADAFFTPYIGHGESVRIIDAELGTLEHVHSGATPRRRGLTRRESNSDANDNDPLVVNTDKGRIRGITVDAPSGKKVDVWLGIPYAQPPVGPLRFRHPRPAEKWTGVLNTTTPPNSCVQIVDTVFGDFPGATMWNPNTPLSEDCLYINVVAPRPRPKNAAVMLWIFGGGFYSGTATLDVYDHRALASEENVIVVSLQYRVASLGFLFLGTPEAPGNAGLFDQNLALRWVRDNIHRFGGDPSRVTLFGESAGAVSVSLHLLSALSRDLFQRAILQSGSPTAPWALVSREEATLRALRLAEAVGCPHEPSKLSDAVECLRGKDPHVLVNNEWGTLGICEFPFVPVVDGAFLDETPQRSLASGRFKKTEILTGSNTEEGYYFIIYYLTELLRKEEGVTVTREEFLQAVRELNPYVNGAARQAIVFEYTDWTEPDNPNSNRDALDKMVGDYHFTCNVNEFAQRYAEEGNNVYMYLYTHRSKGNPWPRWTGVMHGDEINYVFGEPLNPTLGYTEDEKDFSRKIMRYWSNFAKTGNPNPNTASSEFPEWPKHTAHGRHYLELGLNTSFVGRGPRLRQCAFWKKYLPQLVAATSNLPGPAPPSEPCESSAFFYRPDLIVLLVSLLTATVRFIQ

SMILES: [N-]=[N+]=NCCCN1C(=O)CSC1c1ccccc1 (stereo not drawn) [compound 17, 3-(3-Azidopropyl)-2-phenylthiazolidin-4-one]
- IC50 (μM) AgAChE1 [1]: Inactive
- inhibitory activity towards AgAChE1 [1]: no detectable inhibitory activity

SMILES: Cl.O=C1CSC(c2ccc(F)cc2)N1CCNC1CC1 (stereo not drawn) [compound 49, 3-(2-(Cyclopropylamino)ethyl)-2-(4-fluorophenyl)thiazolidin-4-one Hydrochloride]
- loss of potency vs 3-carbon chain dimethylamine analogue [1]: 13 fold

SMILES: CN(C)CCN1C(=O)CSC1c1ccc(F)cc1.Cl (stereo not drawn) [compound 37, 3-(2-(Dimethylamino)ethyl)-2-(4-fluorophenyl)thiazolidin-4-one Hydrochloride]
- activity against hAChE [2]: inactive

SMILES: CN(C)CCN1C(=O)CSC1c1cccc(F)c1F.Cl (stereo not drawn) [compound 39, 2-(2,3-Difluorophenyl)-3-(2-(dimethylamino)ethyl)thiazolidin-4-one Hydrochloride]
- activity against hAChE [2]: inactive

SMILES: O=C1CSC(c2ccccc2)N1CCc1ccc(F)cc1 (stereo not drawn) [compound 9, 3-(4-Fluorophenethyl)-2-phenylthiazolidin-4-one]
- IC50 (μM) AgAChE1 [1]: Inactive
- inhibitory activity towards AgAChE1 [1]: no detectable inhibitory activity

SMILES: CN(C)CCCN1C(=O)CSC1c1cccc2ccccc12.Cl (stereo not drawn) [compound 36, 3-(3-(Dimethylamino)propyl)-2-(naphthalen-1-yl)thiazolidin-4-one Hydrochloride]
- solubility [3]: reduced its solubility at higher concentrations

SMILES: CNCCN1C(=O)CSC1c1cccc2ccccc12.Cl (stereo not drawn) [compound 54, N-Methyl-2-(2-(naphthalen-1-yl)-4-oxothiazolidin-3-yl)ethan-1-aminium Chloride]
- times weaker binders than their tertiary amine analogues [1]: over 10 times

SMILES: CC(C)NCCN1C(=O)CSC1c1cccc2ccccc12.Cl (stereo not drawn) [compound 43, 3-(2-(Isopropylamino)ethyl)-2-(naphthalen-1-yl)thiazolidin-4-one Hydrochloride]
- times weaker binders than their tertiary amine analogues [1]: over 10 times

SMILES: CN(C)CCN1C(=O)CSC1c1cccc2ccccc12.Cl (stereo not drawn) [compound 40, 3-(2-(Dimethylamino)ethyl)-2-(naphthalen-1-yl)thiazolidin-4-one Hydrochloride]
- activity against hAChE [2]: inactive

SMILES: CN(C)CCN1C(=O)CSC1c1ccc(Cl)cc1Cl.Cl (stereo not drawn) [compound 38, 2-(2,4-Dichlorophenyl)-3-(2-(dimethylamino)ethyl)thiazolidin-4-one Hydrochloride]
- activity against hAChE [2]: inactive
